Results taken from ChEMBL document CHEMBL2203104, “Recent advances in antitubercular natural products” (Eur J Med Chem, 2012).

Tested on: Mycobacterium tuberculosis
Assay: Antimycobacterial activity against Mycobacterium tuberculosis H37Rv
Format: functional
Conditions: Mycobacterium tuberculosis, H37Rv; read-out: MIC

Row | Compound | MIC
1 | CC1=C(C)C(=O)C(CC[C@](C)(O)CCC[C@H](C)CCC[C@H](C)CCCC(C)C)=C(C)C1=O | 25 µg/mL
2 | O=C1c2c(O)ccnc2-c2nccc3c2c1nc1ccccc13 | 42 µM
3 | CC(C)=CCc1c(O)cc(O)c(C(=O)/C=C/c2ccccc2)c1O | 0.05 µg/mL
4 | CC(C)=CCc1c(O)ccc(C(=O)/C=C/c2cc(O)c3c(c2)C=CC(C)(C)O3)c1O | 30 µg/mL
5 | CC1(C)Oc2cc(O)c(C(=O)/C=C/c3ccccc3)c(O)c2CC1O (configuration not stated) | 0.05 µg/mL
6 | CCOC(=O)/C=C/COc1ccc(/C=C/C(=O)/C=C(O)/C=C/c2ccc(OC/C=C/C(=O)OCC)c(OC)c2)cc1 | 7.18 µg/mL
7 | COC1=CC(=O)c2cccc(O)c2C1=O | 3.12 µg/mL
8 | CC(=O)[C@]1(O)C(C)=C(C)C(=O)[C@@]12CC[C@](C)(CCC[C@H](C)CCC[C@H](C)CCCC(C)C)O2 | 30 µg/mL
9 | CC(=O)[C@]1(O)C(C)=C(C)C(=O)[C@@]12CC[C@H](CCC[C@H](C)CCC[C@H](C)CCCC(C)C)O2 | 50 µg/mL
10 | COc1ccc(CC(O)C(O)Cc2ccccc2)cc1 (configuration not stated) | 30 µg/mL
11 | CC(C)C1=C(O)C(=O)C2=C(C1=O)[C@H](O)[C@@H](O)[C@H]1C(C)(C)CCC[C@]21C | 25 µg/mL
12 | CC(=O)O[C@H]1C2=C(C(=O)C(O)=C(C(C)C)C2=O)[C@@]2(C)CCCC(C)(C)[C@@H]2[C@@H]1O | 25 µg/mL
13 | C=C(C)C(CC[C@@H](C)[C@H]1CC[C@@]2(C)[C@@H]3CC[C@H]4C(C)(C)[C@@H](O)CC[C@@]45C[C@@]35CC[C@]12C)OO (some centres not stated) | 25 µg/mL
14 | C[C@H](C/C=C/C(C)(C)OO)[C@H]1CC[C@@]2(C)[C@@H]3CC[C@H]4C(C)(C)[C@@H](O)CC[C@@]45C[C@@]35CC[C@]12C | 25 µg/mL
15 | CC(C)C1=C(O)C(=O)C2=C(C=C[C@H]3C(C)(C)CCC[C@]23C)C1=O | 25 µg/mL
16 | COc1cc(-c2ccccc2)nc2ccccc12 | 16 µg/mL

Row | Compound | MIC
17 | COC1=CC(=O)c2c(O)cccc2C1=O | 30 µg/mL
18 | C[C@@H]1C[C@H](C)C(=O)/C=C/C2[C@@H](O)C3OC4=C(C(=O)O[C@@]42C[C@H]3C)C1=O (single isomer, unassigned; (-)) | 7.2 µM
19 | C=C[C@]1(C)C2=C3c4c([nH]c5cccc(c45)C(C)(C)[C@H]3C[C@H]1Cl)C(C)(C)C(C#N)=C2 [AMBIGUINE G NITRILE] | 53.7 µM
20 | O=C(O)CCCCCCCCCC(=O)C1=CCCC1 [ANTHELMINTHICINS A] | 5.54 µM
21 | O=C(CCCCCCCC[C@H]1C=CCC1)OCC(O)CO (some centres not stated) [ANTHELMINTHICINS B] | 16.7 µM
22 | CC[C@H](CC[C@@H](C)[C@H]1CC[C@H]2[C@@H]3CC=C4CC(=O)CC[C@]4(C)[C@H]3CC[C@]12C)C(C)C [BETA-SITOSTENONE] | 39.5 µM
23 | O=C(O)CCCCCCCCCCCC[C@@H]1C=CCC1 [CHAULMOOGRIC ACID] | 16.8 µM
24 | c1cc2c[n+](c1)CCCCCCCCCCCCc1ccc[n+](c1)CCCCCCCCCCCC2 [CYCLOSTELLETAMINES A] | 32 µg/mL
25 | c1cc2c[n+](c1)CCCCCCCCCCCCCc1ccc[n+](c1)CCCCCCCCCCCC2 [CYCLOSTELLETAMINES B] | 4 µg/mL
26 | c1cc[n+]2c(c1)CCCCCCCCCCCCC[n+]1cccc(c1)CCCCCCCCCCCCC2 [CYCLOSTELLETAMINES C] | 4 µg/mL
27 | c1cc2c[n+](c1)CCCCCCCCCCCCCCc1ccc[n+](c1)CCCCCCCCCCCC2 [CYCLOSTELLETAMINES D] | 8 µg/mL
28 | c1cc2c[n+](c1)CCCCCCCCCCCCCCc1ccc[n+](c1)CCCCCCCCCCCCC2 [CYCLOSTELLETAMINES E] | 11 µg/mL
29 | c1cc2c[n+](c1)CCCCCCCCCCCCCCc1ccc[n+](c1)CCCCCCCCCCCCCC2 [CYCLOSTELLETAMINES F] | 8 µg/mL
30 | COc1cc(/C=C/C(O)=C/C(=O)/C=C/c2ccc(O)cc2)ccc1O [DEMETHOXYCURCUMIN] | 200 µg/mL
31 | COc1cc(C)c(C(=O)Oc2cc(C)c(C(=O)O)c(O)c2C)c(OC)c1C [DIFFRACTAIC ACID] | 15.6 µg/mL
32 | [C-]#[N+]C(C)(C)C[C@@H]1C[C@H](C)[C@H]2CC[C@H](C)[C@@]3([N+]#[C-])CCC(=C)[C@@H]1[C@H]23 [DIISOCYANOAMPHILECTENE] | 2 µg/mL
